The first experiment concerns SARS-CoV-2. Briefly: microbe, parasite or virus in culture. The settings on record: Severe acute respiratory syndrome coronavirus 2, Vero C1008, 48 h.
Regarding `O=C(Cn1c(=O)sc2ccc(Cl)cc21)N1CCN(CCO)CC1` [TIARAMIDE], the IC50 is above 20 µM.
Still for that read-out and setting: then `C[N+]1(C)CCC[C@H]1C(=O)[O-]`, with above 20 µM; and `O=C(O)Cc1ccc(OCCNCC(O)c2ccccc2)cc1` (stereo unspecified), with above 20 µM.
On to `Cc1ccccc1-n1c(C)nc2ccccc2c1=O` [METHAQUALONE], for which the IC50 was above 20 µM.
As for `CC(C)(C)c1cc(NC(=O)Nc2ccc(-c3cn4c(n3)sc3cc(OCCN5CCOCC5)ccc34)cc2)no1` [QUIZARTINIB], the IC50 is above 20 µM.
`NC(=O)N1C(=O)/C(=C(\O)c2cccs2)c2cc(Cl)ccc21` [TENIDAP] gave an IC50 above 20 µM.
With `C=C[C@]12CN(C)[C@@H]3[C@H]4CO[C@H](C[C@H]41)[C@]1(C(=O)Nc4ccccc41)[C@@H]32` [GELSEMINE], the IC50 is above 20 µM.
On the same count and under the same terms, for `Cc1ncc(COP(=O)(O)O)c(C=O)c1O` [PYRIDOXAL PHOSPHATE ANHYDROUS] the value was above 20 µM; for `O=C(Oc1ccc2c(c1)CCCN2C(=O)C(Cl)Cl)c1ccco1` [QUINFAMIDE], above 20 µM; for `CCOc1ccccc1O[C@@H](c1ccccc1)[C@H]1CNCCO1`, above 20 µM.
On to `C=CC(=O)N1CC[C@H](n2nc(C#Cc3cc(OC)cc(OC)c3)c3c(N)ncnc32)C1` [FUTIBATINIB], for which the IC50 is above 20 µM.
In turn, `COc1ccc2cc([C@@H](C)C(=O)O)ccc2c1` yielded an IC50 above 20 µM.
Turning to `NS(=O)(=O)NC[C@H]1COc2cc(Cl)ccc2O1` [JNJ-26489112], the IC50 is above 20 µM.
Same read-out and setting: for `NCc1ccc(S(N)(=O)=O)cc1` [MAFENIDE] the value was above 20 µM; for `Cc1ccc(/C(=C\CN2CCCC2)c2ccccn2)cc1` [TRIPROLIDINE], above 20 µM; for `COC(=O)Nc1nc2cc([S+]([O-])c3ccccc3)ccc2[nH]1` (stereo unspecified) [OXFENDAZOLE], above 20 µM.
Turning to `OC[C@H]1O[C@@H](Oc2ccc(O)cc2)[C@H](O)[C@@H](O)[C@@H]1O` [ARBUTIN], the IC50 is above 20 µM.
The same measure, in the same setting: for `CCCCCCNC(=O)n1cc(F)c(=O)[nH]c1=O` [CARMOFUR] the value was above 20 µM; for `CCOC(=O)C1(c2ccccc2)CCN(C)CC1` [MEPERIDINE], above 20 µM.
Still for that read-out and setting: then `CC12C=CC(=O)C=C1[C@@H](F)CC1C2C(O)CC2(C)C1CCC2(O)C(=O)CO` (stereo partly specified), with above 20 µM; and `CC(C)(O)c1ccn2c(-c3ccc(F)c(-c4ccc(F)cc4C#N)c3)cnc2c1F`, with above 20 µM; and `CCN1c2ncc(CCOc3cc[n+]([O-])c4ccccc34)cc2C(=O)N(C)c2cccnc21` [BILR 355], with above 20 µM.
Same read-out and setting: then `COc1ccc(Cl)cc1[C@]1(F)C(=O)Nc2cc(C(F)(F)F)ccc21` [FLINDOKALNER], with above 20 µM.
For `NC(=O)c1ccc([N+](=O)[O-])cc1Cl` [AKLOMIDE], the IC50 was above 20 µM.
`NCC(CC(=O)O)c1ccccc1` (stereo unspecified) [PHENIBUT]: the IC50 was above 20 µM.
As to `CC[C@@]1(O)C(=O)OCc2c1cc1n(c2=O)Cc2c-1nc1ccccc1c2CCNC(C)C` [BELOTECAN], the IC50 was above 20 µM.
On to `CC(C)NCC(O)COc1ccccc1-n1cccc1` (stereo unspecified) [ISAMOLTAN], for which the IC50 was above 20 µM.
The same measure, in the same setting: then `CCOC(=O)C1=C(COCCN)NC(C)=C(C(=O)OC)C1c1ccccc1Cl` (stereo unspecified) [AMLODIPINE], with above 20 µM; and `O=C(O)CCCCC1CCSS1` (stereo not drawn) [LIPOIC ACID, ALPHA], with above 20 µM; and `CCOC(=O)Nc1ccc2c(c1)N(C(=O)CN(C)C)c1ccccc1CC2` [TIRACIZINE], with above 20 µM.
The same measure, in the same setting: for `Cc1ncc(-c2csc(N=C(N)N)n2)[nH]1` [ZALTIDINE] the value was above 20 µM; for `C=CC(C)NC(=S)NNC(=S)NC` (stereo unspecified) [METHALLIBURE], above 20 µM.
`COc1cc(CC(C)N)c(OC)cc1C` (stereo unspecified) [DOM]: the IC50 is above 20 µM.

Staying with this experiment, now noted: Severe acute respiratory syndrome coronavirus 2, Vero C1008, 48 h, read-out: pIC50 (converted).
As to `O=C(Cn1c(=O)sc2ccc(Cl)cc21)N1CCN(CCO)CC1` [TIARAMIDE], the IC50 was above 20 µM.
Turning to `C[N+]1(C)CCC[C@H]1C(=O)[O-]`, the IC50 was above 20 µM.
On the same count and under the same terms, then `O=C(O)Cc1ccc(OCCNCC(O)c2ccccc2)cc1` (stereo unspecified), with above 20 µM; and `Cc1ccccc1-n1c(C)nc2ccccc2c1=O` [METHAQUALONE], with above 20 µM; and `CC(C)(C)c1cc(NC(=O)Nc2ccc(-c3cn4c(n3)sc3cc(OCCN5CCOCC5)ccc34)cc2)no1` [QUIZARTINIB], with above 20 µM.
For `NC(=O)N1C(=O)/C(=C(\O)c2cccs2)c2cc(Cl)ccc21` [TENIDAP], the IC50 is above 20 µM.
Still for that read-out and setting: then `C=C[C@]12CN(C)[C@@H]3[C@H]4CO[C@H](C[C@H]41)[C@]1(C(=O)Nc4ccccc41)[C@@H]32` [GELSEMINE], with above 20 µM; and `Cc1ncc(COP(=O)(O)O)c(C=O)c1O` [PYRIDOXAL PHOSPHATE ANHYDROUS], with above 20 µM.
Still for that read-out and setting: then `O=C(Oc1ccc2c(c1)CCCN2C(=O)C(Cl)Cl)c1ccco1` [QUINFAMIDE], with above 20 µM; and `CCOc1ccccc1O[C@@H](c1ccccc1)[C@H]1CNCCO1`, with above 20 µM.
On the same count and under the same terms, for `C=CC(=O)N1CC[C@H](n2nc(C#Cc3cc(OC)cc(OC)c3)c3c(N)ncnc32)C1` [FUTIBATINIB] the value was above 20 µM.
For the compound `COc1ccc2cc([C@@H](C)C(=O)O)ccc2c1`, the IC50 is above 20 µM.
On to `NS(=O)(=O)NC[C@H]1COc2cc(Cl)ccc2O1` [JNJ-26489112], for which the IC50 is above 20 µM.
Take `NCc1ccc(S(N)(=O)=O)cc1` [MAFENIDE]: the IC50 is above 20 µM.
As to `Cc1ccc(/C(=C\CN2CCCC2)c2ccccn2)cc1` [TRIPROLIDINE], the IC50 is above 20 µM.
On the same count and under the same terms, for `COC(=O)Nc1nc2cc([S+]([O-])c3ccccc3)ccc2[nH]1` (stereo unspecified) [OXFENDAZOLE] the value was above 20 µM.
Still for that read-out and setting: then `OC[C@H]1O[C@@H](Oc2ccc(O)cc2)[C@H](O)[C@@H](O)[C@@H]1O` [ARBUTIN], with above 20 µM; and `CCCCCCNC(=O)n1cc(F)c(=O)[nH]c1=O` [CARMOFUR], with above 20 µM; and `CCOC(=O)C1(c2ccccc2)CCN(C)CC1` [MEPERIDINE], with above 20 µM.
On the same count and under the same terms, for `CC12C=CC(=O)C=C1[C@@H](F)CC1C2C(O)CC2(C)C1CCC2(O)C(=O)CO` (stereo partly specified) the value was above 20 µM.
For the compound `CC(C)(O)c1ccn2c(-c3ccc(F)c(-c4ccc(F)cc4C#N)c3)cnc2c1F`, the IC50 is above 20 µM.
Still for that read-out and setting: for `CCN1c2ncc(CCOc3cc[n+]([O-])c4ccccc34)cc2C(=O)N(C)c2cccnc21` [BILR 355] the value was above 20 µM; for `COc1ccc(Cl)cc1[C@]1(F)C(=O)Nc2cc(C(F)(F)F)ccc21` [FLINDOKALNER], above 20 µM; for `NC(=O)c1ccc([N+](=O)[O-])cc1Cl` [AKLOMIDE], above 20 µM.
The same measure, in the same setting: then `NCC(CC(=O)O)c1ccccc1` (stereo unspecified) [PHENIBUT], with above 20 µM; and `CC[C@@]1(O)C(=O)OCc2c1cc1n(c2=O)Cc2c-1nc1ccccc1c2CCNC(C)C` [BELOTECAN], with above 20 µM.
On the same count and under the same terms, then `CC(C)NCC(O)COc1ccccc1-n1cccc1` (stereo unspecified) [ISAMOLTAN], with above 20 µM; and `CCOC(=O)C1=C(COCCN)NC(C)=C(C(=O)OC)C1c1ccccc1Cl` (stereo unspecified) [AMLODIPINE], with above 20 µM.
Consider `O=C(O)CCCCC1CCSS1` (stereo not drawn) [LIPOIC ACID, ALPHA], for which the IC50 is above 20 µM.
Same read-out and setting: then `CCOC(=O)Nc1ccc2c(c1)N(C(=O)CN(C)C)c1ccccc1CC2` [TIRACIZINE], with above 20 µM; and `Cc1ncc(-c2csc(N=C(N)N)n2)[nH]1` [ZALTIDINE], with above 20 µM.
On to `C=CC(C)NC(=S)NNC(=S)NC` (stereo unspecified) [METHALLIBURE], for which the IC50 was above 20 µM.
`COc1cc(CC(C)N)c(OC)cc1C` (stereo unspecified) [DOM]: the IC50 was above 20 µM.
